Here are results for 1 molecule from patent US20250255850A1, “PHARMACEUTICAL COMPOSITIONS FOR TREATING NEUROLOGICAL CONDITIONS” (YISSUM RESEARCH DEVELOPMENT COMPANY OF THE HEBREW …, priority 2021, published 2025).

In experiment [1] the target is neuronal NOS (Homo sapiens, UniProt P29475). Particulars: Pharm Res., 2001, 18, 1607-1612; cited from earlier work.
The subject of experiment [2] is SHANK3 knockout mice. Put plainly: Novel object recognition test, SHANK3 knockout mice (M1). In kind it is in vivo, mouse. Particulars: 7-NI IP 80 mg/kg/day for 10 days. On the procedure: (§1) Behavioral testing started after 2 hours of treatment.
Novel object recognition (see, FIG. 4A): The novel object test for object recognition and memory takes place in a white open field arena (45×45 cm). The test involves a set of two unique novel objects, each about the size of a mouse, constructed from two different materials and non-uniform in shape. The test consisted of one 10-minute habituation session, a 5-minute familiarization session and a 5-minute recognition test, each video tracked (Noldus Ethovision). During the habituation, animals were allowed to freely explore an empty open field. At the end of the session, they were shifted from the open field to a place in a temporary clean holding cage for about 2 minutes. Two identical objects were placed on the median line at 10 cm from each wall and the animal was returned to the open field and allowed to explore the objects for 5 minutes before being returned to its home cage. Next day, one familiar object and one novel object were placed in the open field to the location where the identical objects were placed during the familiarization session and the mouse was allowed to explore them for a 5-minute recognition test. […] Familiarization and recognition sessions were scored for total time spent investigating each object, the number of object interactions and the latency of the first object interaction. […]

Experiment [3] deals with T1, nNOS (Homo sapiens, UniProt P29475).
T1 construct: SH-SY5Y cells grown in six-well culture plates were lysed in 50 mM Tris-HCl buffer (pH 7.4); endogenous in cells; host or cells: SH-SY5Y (human neuroblastoma, ATCC)
Put plainly: NADPH-diaphorase activity assay in SH-SY5Y cell lysates. In kind it is cell-based. Particulars: 7-NI 100 μM 24 hours or 20 nM nNOS siRNA 24 hours. How it is done: Human NB SH-SY5Y cells were obtained from the American Type Culture Collection (ATCC) and maintained in Dulbecco's modified Eagle's medium (DMEM) and Ham's F-12 (1:1) supplemented with 10% fetal bovine serum, 2 mM L-glutamine, and 100 U/ml penicillin-G/100 […] streptomycin in a humidified atmosphere (37° C., 5% CO2). Cells were plated onto 25 cm^2 and 75 cm^2 plates at a density of 7.0×10^5 and 2.1×10^6 cells/cm^2 respectively for Western blotting (WB) and 1×10^5 for immunofluorescence. The SH-SY5Y cells were treated with 100 μM 7-nitroindazole (7-NI) for 24 hours (Fujibayashi et al., 2015). This concentration was confirmed in a dose-response experiment (FIG. 14A) using an MTT viability assay. […]
The NADPH-diaphorase activity assay was used to determine the NOS activity based on the NADPH-dependent reduction of nitro-blue tetrazolium salt (NBT) to visible formazan (Amaroli and Chessa, 2012; Seckler et al., 2020). […] After a 15 min incubation period at 37° C., the production of formazan was measured spectrophotometrically at 585 nm. The data were expressed as absorbance units and normalized for the protein content of each sample. Protein concentration was measured by the bicinchoninic acid (BCA) protein assay using BSA as a standard (Ortiz-Ortiz et al., 2009). Released NO was measured using a Griess Assay Kit (Beyotime, Shanghai, China) according to the manufacturer's instructions.

For experiment [4], the system named is 3-nitrotyrosine. Put plainly: Western blot of 3-nitrotyrosine in cortical tissue, CNTNAP2(-/-) mutant group (M2). Particulars: CNTNAP2(-/-) mutant mice treated with 7-NI (M2+7-NI) vs M2. It is filed as in vivo, mouse. How it is done: as §1
To further corroborate these findings, the expression of 3-nitrotyrosine in cortical tissue of the wild type (WT), compared with the SHANK3 mutant group (M1), and SHANK3 group treated with 7-NI (M1+7-NI), and in cortical tissue of the wild type (WT), compared with the CNTNAP2^(−/−) mutant group (M2), and the CNTNAP2^(−/−) mutant group treated with 7-NI (M2+7—NI) was tested, and the obtained data is presented in FIGS. 3C-D (for M1) and in FIGS. 3E-F (for M2).

T1 sequence (P29475 whole entry): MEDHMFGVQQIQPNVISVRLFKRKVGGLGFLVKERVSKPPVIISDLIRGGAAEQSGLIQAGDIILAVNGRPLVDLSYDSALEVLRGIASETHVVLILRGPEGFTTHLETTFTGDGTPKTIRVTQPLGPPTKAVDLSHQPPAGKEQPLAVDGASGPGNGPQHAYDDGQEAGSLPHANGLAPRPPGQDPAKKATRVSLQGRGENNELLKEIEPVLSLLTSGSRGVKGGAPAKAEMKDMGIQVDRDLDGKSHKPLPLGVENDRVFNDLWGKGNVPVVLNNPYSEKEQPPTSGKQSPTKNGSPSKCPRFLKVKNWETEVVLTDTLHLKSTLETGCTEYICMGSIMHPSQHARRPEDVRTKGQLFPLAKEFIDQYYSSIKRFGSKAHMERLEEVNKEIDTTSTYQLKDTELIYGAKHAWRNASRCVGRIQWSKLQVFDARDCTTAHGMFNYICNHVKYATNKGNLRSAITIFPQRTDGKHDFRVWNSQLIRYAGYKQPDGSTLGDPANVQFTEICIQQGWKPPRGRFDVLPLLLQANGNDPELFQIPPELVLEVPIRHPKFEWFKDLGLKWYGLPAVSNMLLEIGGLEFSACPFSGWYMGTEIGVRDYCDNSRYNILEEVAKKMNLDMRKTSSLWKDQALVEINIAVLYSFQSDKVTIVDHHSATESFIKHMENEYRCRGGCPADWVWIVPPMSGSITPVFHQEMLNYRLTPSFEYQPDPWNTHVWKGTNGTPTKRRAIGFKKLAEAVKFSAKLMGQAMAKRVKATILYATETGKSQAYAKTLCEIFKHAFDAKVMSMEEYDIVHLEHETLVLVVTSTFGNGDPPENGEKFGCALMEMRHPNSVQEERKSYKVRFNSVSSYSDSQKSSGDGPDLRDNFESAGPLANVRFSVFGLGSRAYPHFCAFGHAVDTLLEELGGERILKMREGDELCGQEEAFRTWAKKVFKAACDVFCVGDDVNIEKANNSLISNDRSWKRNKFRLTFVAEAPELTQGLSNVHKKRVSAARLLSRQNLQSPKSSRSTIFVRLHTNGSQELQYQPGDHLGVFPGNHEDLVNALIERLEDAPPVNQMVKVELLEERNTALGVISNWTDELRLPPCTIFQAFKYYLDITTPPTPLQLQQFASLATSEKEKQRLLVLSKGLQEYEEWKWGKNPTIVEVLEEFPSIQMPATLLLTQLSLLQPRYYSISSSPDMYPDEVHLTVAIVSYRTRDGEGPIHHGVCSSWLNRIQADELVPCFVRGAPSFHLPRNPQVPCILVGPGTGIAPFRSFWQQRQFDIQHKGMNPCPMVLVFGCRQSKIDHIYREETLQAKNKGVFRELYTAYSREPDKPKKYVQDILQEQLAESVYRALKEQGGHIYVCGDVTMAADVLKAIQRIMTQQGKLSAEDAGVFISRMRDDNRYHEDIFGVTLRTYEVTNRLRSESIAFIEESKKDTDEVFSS
Chain of neuronal NOS (P29475 whole entry, species assumed): as the sequence (P29475 whole entry) above

In the case of `O=[N+]([O-])c1cccc2cn[nH]c12` [7-NI, 7-nitroindazole], in experiment [1], the “selectivity for neuronal NOS” value is reported as 10 fold. Moreover, the “preference for the novel object (NOR test)” value in experiment [2] (SHANK3 knockout mice aged 6 weeks) was “exhibited a significant preference for the novel object over the familiar one”. In experiment [2] (SHANK3 knockout mice aged 10 months), the “memory (novel object recognition) in aged mice” value is “restored”. The NADPH diaphorase activity result in experiment [3] is recorded as “significantly inhibited”. Further, the “expression of 3-Ntyr in cortical tissue” value in experiment [4] was “reduced the expression of 3-Ntyr”.
